In US20250073232A1, “COMBINATIONS OF LSD1 INHIBITORS FOR TREATING MYELOID CANCERS” (ORYZON GENOMICS, S.A., priority 2021, published 2025):

Columns and labels:
MOLM-13 = experiment: Single agent viability assay (96 hours, alamarBlue); format: cell-based; settings: for EC50: Homo sapiens, 96 hours incubation
Protocol: (§1) Mycoplasma-free AML cell lines were maintained in RPMI 10% FBS medium at 37° C. in a humidified incubator with controlled 5% CO2 atmosphere. Cell freezing and thawing was performed following recommendation from ATCC. Genetic profiling of the cell lines used is available in Table 1.
(§2) Cells were seeded in 96-well plates at the optimal density to guarantee linear growth throughout the assay (8000 cells/well for MV(4; 11), 4000 cells/well for MOLM-13 and OCI-AML3, 2000 cells/well for TF1a) in 50 μL of medium. Each experimental condition was tested in technical triplicates, including medium-only and vehicle-treated controls for background correction and normalization, respectively. After seeding, 50 μL of medium containing 9 serial dilutions (1:3) of 2×-concentrated compound were added to the cells to obtain 100 μL of cells with 1×-concentrated compound at each dilution. Cells were then incubated for 96 hours at 37° C. in a controlled 5% CO2 atmosphere, prior to evaluation of cell viability using alamarBlue™ cell viability reagent (ThermoFisher Scientific, Waltham, MA/USA). AlamarBlue™ is a cell viability indicator that uses the natural reducing power of living cells to convert resazurin to the fluorescent molecule, resorufin. Briefly, alamarBlue™ stock solution was diluted 1:20 in the culture medium and after 3 hours incubation fluorescence was measured using a TECAN Infinity 2000 plate reader (Tecan Group Ltd., Männedorf, CH; 540-570 nm excitation wavelength, 580-610 nm emission wavelength). For each condition, the average fluorescence was calculated from the 3 technical replicates; background correction was calculated from the fluorescence of medium-only controls. Data were analyzed using the GraphPad PRISM® version 9.0.1 (GraphPad Software, Inc., La Jolla, CA/USA) to calculate the best-fitting curves and the EC50 values.

MV(4; 11) = experiment: as above; format: cell-based; settings: for EC50: Homo sapiens, MV4-11, 96 hours incubation
Protocol: as §1, §2

TF-1a = experiment: as above; format: cell-based; settings: for EC50 range in words / reduction of viability (compared to vehicle controls): 96 hours; for EC50: TF-1a
Protocol: as §1, §2

OCI-AML3 = experiment: as above; format: cell-based; settings: for EC50: Homo sapiens; for EC50 range in words / reduction of viability (compared to vehicle controls): single agent, 96 hours
Protocol: as §1, §2

R/R AML = R/R AML patients treated with gilteritinib; cited from earlier work
[1] = single agent, 96 hours incubation
[2] = OCI-AML-3, single agent, 96 hours incubation

Row | Structure (SMILES) | EC50 range in words (MOLM-13; 96 hours) | EC50 (MOLM-13) | EC50 range in words (MV(4; 11); 96 hours) | EC50 (MV(4; 11)) | EC50 range in words (TF-1a; TF1a, single agent) | reduction of viability (compared to vehicle controls) (TF-1a; TF1a, single agent) | EC50 (TF-1a; [1]) | EC50 (OCI-AML3; [2]) | EC50 range in words (OCI-AML3) | reduction of viability (compared to vehicle controls) (OCI-AML3) | reduction of viability (compared to vehicle controls) (MOLM-13; 96 hours) | reduction of viability (compared to vehicle controls) (MV(4; 11); 96 hours) | R/R AML patients showing complete remission (R/R AML) | relapse-free survival (R/R AML) | EC50 (TF-1a; TF1a, tested following the method described above) | EC50 (OCI-AML3; OCI-AML-3, tested following the method described above)
1 | COc1ccc(-c2c(-c3ccc(C#N)c(F)c3)nc(N3CCC(N)CC3)n(C)c2=O)cc1F [CC-90011, 4-[2-(4-aminopiperidin-1-yl)-5-(3-fluoro-4-methoxyphenyl)-1-methyl-6-oxo-1,6-dihydropyrimidin-4-yl]-2-fluorobenzonitrile] | nanomolar range | 1.49 nM | nanomolar range | 2.3 nM | – | – | – | – | – | – | – | – | – | – | – | –
2 | CN1CCN(C(=O)[C@H](CCCN[C@@H]2C[C@H]2c2ccc(F)cc2)NC(=O)c2ccc(-n3ccnn3)cc2)CC1 [bomedemstat, N-[(2S)-5-{[(1R,2S)-2-(4-fluorophenyl)cyclopropyl]amino}-1-(4-methylpiperazin-1-yl)-1-oxopentan-2-yl]-4-(1H-1,2,3-triazol-1-yl) benzamide] | nanomolar range | 6.08 nM | nanomolar range | 3.73 nM | – | – | – | – | – | – | – | – | – | – | – | –
3 | CCc1nc(C(N)=O)c(Nc2ccc(N3CCC(N4CCN(C)CC4)CC3)c(OC)c2)nc1NC1CCOCC1 [gilteritinib, 6-ethyl-3-[[3-methoxy-4-[4-(4-methylpiperazinyl)piperidin-1-yl]phenyl]amino]-5-[(tetrahydro-2H-pyran-4-yl)amino]pyrazine-2-carboxamide] | nanomolar range | 2.91 nM | nanomolar range | 0.77 nM | micromolar range | > 70% | 1020 nM | 1160 nM | micromolar range | > 70% | ~100% | ~100% | 21% | around 4 months | – | –
4 | N[C@H]1CC[C@H](N[C@@H]2C[C@H]2c2ccccc2)CC1 [iadademstat, (trans)-N1-((1R,2S)-2-phenylcyclopropyl)cyclohexane-1,4-diamine] | sub-nanomolar range | 0.39 nM | sub-nanomolar range | 0.43 nM | sub-nanomolar range | greater than 20% | 0.35 nM | 0.38 nM | sub-nanomolar range | greater than 20% | – | – | – | – | – | –
5 | CC1(C)CCC(CN2CCN(c3ccc(C(=O)NS(=O)(=O)c4ccc(NCC5CCOCC5)c([N+](=O)[O-])c4)c(Oc4cnc5[nH]ccc5c4)c3)CC2)=C(c2ccc(Cl)cc2)C1 [venetoclax] | – | – | – | – | – | – | – | – | – | – | – | – | – | – | > 10000 nM | > 10000 nM
